Assay [1] deals with T1, His-hSHIP1 enzyme (Homo sapiens, UniProt Q92835).
T1 sequence (Q92835 1-1189): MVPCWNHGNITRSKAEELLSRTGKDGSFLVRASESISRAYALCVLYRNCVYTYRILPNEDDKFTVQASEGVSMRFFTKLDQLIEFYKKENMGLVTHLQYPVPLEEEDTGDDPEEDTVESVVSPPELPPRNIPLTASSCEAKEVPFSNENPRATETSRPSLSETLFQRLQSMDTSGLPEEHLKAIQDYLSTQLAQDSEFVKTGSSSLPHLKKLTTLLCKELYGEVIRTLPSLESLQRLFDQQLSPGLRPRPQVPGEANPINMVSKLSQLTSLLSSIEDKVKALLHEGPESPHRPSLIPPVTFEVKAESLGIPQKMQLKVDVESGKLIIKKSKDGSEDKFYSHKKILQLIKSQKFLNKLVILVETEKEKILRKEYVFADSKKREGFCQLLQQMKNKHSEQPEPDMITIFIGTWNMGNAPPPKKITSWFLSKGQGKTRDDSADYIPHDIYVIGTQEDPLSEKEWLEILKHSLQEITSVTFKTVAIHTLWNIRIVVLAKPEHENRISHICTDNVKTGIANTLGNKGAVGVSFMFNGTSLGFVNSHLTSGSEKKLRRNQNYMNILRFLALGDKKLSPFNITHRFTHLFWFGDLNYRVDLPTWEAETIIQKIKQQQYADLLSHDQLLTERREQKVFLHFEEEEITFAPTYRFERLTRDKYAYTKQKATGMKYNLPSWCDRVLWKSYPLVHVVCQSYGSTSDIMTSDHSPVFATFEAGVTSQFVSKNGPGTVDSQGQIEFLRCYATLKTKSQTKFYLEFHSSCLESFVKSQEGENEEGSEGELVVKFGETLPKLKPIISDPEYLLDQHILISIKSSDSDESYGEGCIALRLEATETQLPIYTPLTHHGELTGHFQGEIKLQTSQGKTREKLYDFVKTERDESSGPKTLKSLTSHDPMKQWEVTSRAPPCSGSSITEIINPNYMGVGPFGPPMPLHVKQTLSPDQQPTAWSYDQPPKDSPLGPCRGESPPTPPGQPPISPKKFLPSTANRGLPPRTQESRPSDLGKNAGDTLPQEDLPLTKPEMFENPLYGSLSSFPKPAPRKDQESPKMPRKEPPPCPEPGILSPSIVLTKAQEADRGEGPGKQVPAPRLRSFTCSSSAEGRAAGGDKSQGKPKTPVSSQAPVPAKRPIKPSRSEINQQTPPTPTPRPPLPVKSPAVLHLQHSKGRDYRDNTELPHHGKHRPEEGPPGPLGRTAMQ
Briefly: His-hSHIP1 phosphatase activity assay (IP4 substrate, Biomol Green). Particulars: percentage increase relative to background; concentrations ≦300 μM. In kind it is biochemical. The method, then: Test compounds were dissolved in 95% ethanol to form stock solutions. Before screening, the stock solutions were diluted with Phosphatase Assay Buffer (20 mM Tris-HCL, 10 mM MgCl2 pH 7.5, 0.02% Tween 20) to form working assay solutions that contained 10% ethanol. The assay was carried out on 96-well microtiter plates using a modified procedure of that reported by Ong et al., Blood 110, 1942-1949, 2007 and Yang et al., Org Lett 7, 1073-1076, 2005, both of which references are incorporated herein by reference in their entirety.
Each reaction contained 5 μL of His-hSHIP1 enzyme (15-20 ng), 10 μL of the substrate, 1,3,4,5-inositol tetrakisphosphate (IP4; 50 μM final), 5 μL of Phosphatase Assay Buffer, and 5 μL of test compound at various concentrations in 10% ethanol (0-300 μM final). Control blanks were also prepared by replacing His-hSHIP1 enzyme, IP4, or test compounds with Phosphatase Assay Buffer. After adding the reaction components in a 96-well microtiter plate on ice, the reaction was mixed by briefly shaking the plate vigorously. The reaction was then incubated at 37° C. for 15 min with gentle shaking followed by addition of 100 μL of Biomol Green Reagent (BIOMOL, PA, USA) to terminate the reaction. The free phosphate released from IP4 by His-hSHIP1 bound to the Biomol Green Reagent, turning the solution green in colour. After incubating the mixture for 20 min at room temperature for colour development, the absorbance was read with a SpectraMax Plus 96-well plate reader (Molecular Devices, Sunnyvale, Calif., USA) at a wavelength of 650 nm.
Percent (%) activation in Table 2 is expressed as a percentage increase relative to background. Scoring is expressed as follows: + (<50%); ++ (≧50% but <65%); +++ (≧65%).

Assay [2] relates to OPM2 cells. Description: Inhibition of OPM2 proliferation (BrdU ELISA). Type of assay: cell-based. Particulars: Homo sapiens, OPM-2, 72 hours, read-out: Scoring: % inhibition of OPM2 proliferation. The method, then:
Test compounds were dissolved in 100% DMSO to form stock solutions. Prior to screening, the stock solutions were diluted with complete media (RPMI 1640 containing 10% fetal calf serum, 2 mM L-glutamine and 50 U/mL each of penicillin and streptomycin) to form working assay solutions that contain 0.2% DMSO. The assay was initiated by adding 30,000 OPM2 cells (in 50 μL) to 50 μL of representative compounds at concentrations ranging from 0.03 to 30 μM. The cells were incubated for 72 hours in a humidified CO2 incubator with the addition of 10 μM BrdU for the final 6 hours according to the directions from the Roche BrdU Cell Proliferation ELISA kit used to detect proliferation (Roche, Cat. No. 11 647 229 001). OPM2 cells incubated in 0.1% DMSO in complete media were used as a negative control and the PI3Kα Inhibitor 2 (3-[4-(4-morpholinyl)thieno[3,2-d]pyrimidin-2-yl-phenol, Cayman Chemical, Cat. No. 10010177) was used as a positive control for inhibition of proliferation. At the end of the incubation, the plate containing the labeled cells was centrifuged, the supernatant removed and the cell pellets dried at 60° C. for 1 hour and stored at 4° C. until further analysis. Analysis of BrdU incorporation was done according to the manufacturer's instructions.

With `CNC(=O)c1cc(O)c2c(c1)S(=O)(=O)C[C@@H]1[C@@]3(C)CCCC(C)(C)[C@@H]3CC[C@@]21C` [Compound No. 62], the “Scoring: percent (%) activation of His-hSHIP1 enzyme” value (from here on “Scoring: percent (%) activation”) in assay [1] is recorded as “++ (≧50% but <65%)”. In addition, the inhibition at 30 µM in assay [2] is 25 to 75%. Regarding `COc1cc(O)cc2c1[C@]1(C)CC[C@H]3C(C)(C)CCC[C@]3(C)[C@H]1CS2(=O)=O` [compound 57, (1R,10R,11S,16S)-5-hydroxy-3-methoxy-1,11,15,15-tetramethyl-8λ^6-thiatetracyclo[8.8.0.0^2,7.0^11,16]octadeca-2,4,6-triene-8,8-dione], the “Scoring: percent (%) activation” value in assay [1] was “+ (<50%)”. Besides, the inhibition at 30 µM in assay [2] was at least 75%. The like results for `CC1(C)CCC[C@]2(C)[C@H]3CSc4cc(O)cc(C#N)c4[C@]3(C)CC[C@@H]12` [compound 78, (1R,10R,11S,16S)-5-hydroxy-1,11,15,15-tetramethyl-8-thiatetracyclo[8.8.0.0^2,7.0^11,16]octadeca-2,4,6-triene-3-carbonitrile] were, in that order, “+ (<50%)” and at least 75%. The like results for `CNC(=O)c1cc(OC)c2c(c1)S(=O)(=O)C[C@@H]1[C@@]3(C)CCCC(C)(C)[C@@H]3CC[C@@]21C` [compound 81, (1R,10R,11S,16S)-3-methoxy-N,1,11,15,15-pentamethyl-8,8-dioxo-8λ^6-thiatetracyclo[8.8.0.0^2,7.0^11,16]octadeca-2,4,6-triene-5-carboxamide] were, in that order, “+ (<50%)” and 25 to 75%. The like results for `CC1(C)CCC[C@]2(C)[C@H]3CS(=O)(=O)c4cc(C(=O)N5CCOCC5)cc(O)c4[C@]3(C)CC[C@@H]12` [compound 87, (1R,10R,11S,16S)-3-hydroxy-1,11,15,15-tetramethyl-5-[(morpholin-4-yl)-carbonyl]-8λ^6-thiatetracyclo[8.8.0.0^2,7.0^11,16]-octadeca-2,4,6-triene-8,8-dione] were, in that order, “++ (≧50% but <65%)” and 25 to 75%. In the case of `CN1CCN(C(=O)c2cc(O)c3c(c2)S(=O)(=O)C[C@@H]2[C@@]4(C)CCCC(C)(C)[C@@H]4CC[C@@]32C)CC1` [compound 89, (1R,10R,11S,16S)-3-hydroxy-1,11,15,15-tetramethyl-5-[(4-methylpiperazin-1-yl)-carbonyl]-8λ^6-thiatetracyclo[8.8.0.0^2,7.0^11,16]octadeca-2,4,6-triene-8,8-dione], in assay [1], the “Scoring: percent (%) activation” value was “+ (<50%)”. Besides, the inhibition at 30 µM in assay [2] is at least 75%. For `COC(=O)CNC(=O)c1cc(O)c2c(c1)S(=O)(=O)C[C@@H]1[C@@]3(C)CCCC(C)(C)[C@@H]3CC[C@@]21C` [compound 92, methyl 2-{[(1R,10R,11S,16S)-3-hydroxy-1,11,15,15-tetramethyl-8,8-dioxo-8λ^6-thiatetracyclo[8.8.0.0^2,7.0^11,16]octadeca-2,4,6-trien-5-yl]formamido}acetate], the “Scoring: percent (%) activation” value in assay [1] is reported as “+ (<50%)”. The inhibition at 30 µM in assay [2] is at least 75%. In the case of `CC1(C)CCC[C@]2(C)[C@H]3CS(=O)(=O)c4cc(C(=O)N5CCNCC5)cc(O)c4[C@]3(C)CC[C@@H]12` [compound 102, (1R,10R,11S,16S)-3-hydroxy-1,11,15,15-tetramethyl-5-[(piperazin-1-yl)carbonyl]-8λ^6-thiatetracyclo[8.8.0.0^2,7.0^11,16]-octadeca-2,4,6-triene-8,8-dione], in assay [1], the “Scoring: percent (%) activation” value is “+ (<50%)”. For the same compound, in assay [2], the inhibition at 30 µM is at least 75%.

In the case of `CC1(C)CCC[C@]2(C)[C@H]3CS(=O)(=O)c4cc(OCC(=O)O)cc(OCC(=O)O)c4[C@]3(C)CC[C@@H]12` [compound 108, 2-{[(1R,10R,11S,16S)-3-(carboxymethoxy)-1,11,15,15-tetramethyl-8,8-dioxo-8^6-thiatetracyclo[8.8.0.0^2,7.0^11,16]octadeca-2,4,6-trien-5-yl]oxy}acetic acid], in assay [2], the inhibition at 30 µM was below 25%.

Consider `COc1cc(OCC(=O)N2CCOCC2)cc2c1[C@]1(C)CC[C@H]3C(C)(C)CCC[C@]3(C)[C@H]1CS2(=O)=O` [compound 110, (1R,10R,11S,16S)-3-methoxy-1,11,15,15-tetramethyl-5-[2-(morpholin-4-yl)-2-oxoethoxy]-8^6-thiatetracyclo[8.8.0.0^2,7.0^11,16]octadeca-2,4,6-triene-8,8-dione], for which, in assay [2], the inhibition at 30 µM is below 25%. Consider `COc1cc(OC)c2c(c1N)S(=O)(=O)C[C@@H]1[C@@]3(C)CCCC(C)(C)[C@@H]3CC[C@@]21C` [compound 112, (1R,10R,11S,16S)-6-amino-3,5-dimethoxy-1,11,15,15-tetramethyl-8^6-thiatetracyclo[8.8.0.0^2,7.0^11,16]octadeca-2,4,6-triene-8,8-dione], for which the inhibition at 30 µM in assay [2] is at least 75%.

For the origin of these results see patent US8101605B2, “SHIP1 modulators and methods related thereto” (Aquinox Pharmaceuticals Inc., priority 2009, dated 2012).
